Active and inactive are the calls of the source. No cut-off for these calls is given here.
Legend:
[1] = test system: SH-SY5Y; experiment: Cell cycle arrest in human SH-SY5Y cells assessed as accumulation of cells at S phase at 2 uM measured after 24 hrs by PI staining based flowcytometry method (reference value: 27.69%); format: functional
[2] = test system: SH-SY5Y; experiment: Induction of apoptosis in human SH-SY5Y cells assessed as early apoptotic cells at 2 uM measured after 24 hrs by Annexin V-FITC/PI staining based flowcytometry (reference value: 0.82%); format: functional
[3] = test system: MDA-MB-231; experiment: Induction of apoptosis in human MDA-MB-231 cells assessed as viable cells at 4 uM measured after 24 hrs by Annexin V-FITC/PI staining based flowcytometry (reference value: 93.14%); format: functional; conditions: read-out: Activity
[4] = test system: MDA-MB-231; experiment: Antimigratory activity against human MDA-MB-231 cells assessed as wound closure at 0.4 uM measured after 48 hrs by cell scratch assay (reference value: 30.3%); format: functional
[5] = Half life in Sprague-Dawley rat at 1 mg/kg, iv measured for 12 hrs by LC-MS/MS analysis; format: ADME, organism-based; conditions: in vivo
[6] = target: Fibroblast growth factor receptor (Homo sapiens) (UniProt P22607+P11362+P22455+P21802); experiment: Inhibition of human FGFR at 1 uM; format: protein assay
Chain of Fibroblast growth factor receptor (Homo sapiens) (P11362 whole entry, looked up): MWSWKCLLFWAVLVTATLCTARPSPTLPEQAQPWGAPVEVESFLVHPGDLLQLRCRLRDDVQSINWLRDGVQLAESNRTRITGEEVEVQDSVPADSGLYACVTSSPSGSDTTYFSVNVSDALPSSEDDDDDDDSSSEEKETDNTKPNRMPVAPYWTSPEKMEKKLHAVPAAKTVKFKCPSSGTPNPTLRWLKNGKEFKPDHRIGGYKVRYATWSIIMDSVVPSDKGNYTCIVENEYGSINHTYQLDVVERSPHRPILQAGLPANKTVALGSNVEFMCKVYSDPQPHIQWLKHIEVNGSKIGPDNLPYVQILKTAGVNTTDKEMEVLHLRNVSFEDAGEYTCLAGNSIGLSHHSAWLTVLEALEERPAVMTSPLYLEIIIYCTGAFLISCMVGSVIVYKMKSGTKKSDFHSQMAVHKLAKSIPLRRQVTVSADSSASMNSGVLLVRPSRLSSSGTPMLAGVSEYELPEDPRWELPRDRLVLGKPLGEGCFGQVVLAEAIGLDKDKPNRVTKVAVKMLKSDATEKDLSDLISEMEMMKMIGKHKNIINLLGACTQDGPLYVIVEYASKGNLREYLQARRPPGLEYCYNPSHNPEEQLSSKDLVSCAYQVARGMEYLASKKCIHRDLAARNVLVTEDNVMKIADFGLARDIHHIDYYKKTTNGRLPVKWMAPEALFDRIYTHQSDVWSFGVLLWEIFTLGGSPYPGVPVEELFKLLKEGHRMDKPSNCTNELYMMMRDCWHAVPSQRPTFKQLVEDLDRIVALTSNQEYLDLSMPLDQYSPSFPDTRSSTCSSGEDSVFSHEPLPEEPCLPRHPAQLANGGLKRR
Chain of Fibroblast growth factor receptor (Homo sapiens) (P21802 whole entry, looked up): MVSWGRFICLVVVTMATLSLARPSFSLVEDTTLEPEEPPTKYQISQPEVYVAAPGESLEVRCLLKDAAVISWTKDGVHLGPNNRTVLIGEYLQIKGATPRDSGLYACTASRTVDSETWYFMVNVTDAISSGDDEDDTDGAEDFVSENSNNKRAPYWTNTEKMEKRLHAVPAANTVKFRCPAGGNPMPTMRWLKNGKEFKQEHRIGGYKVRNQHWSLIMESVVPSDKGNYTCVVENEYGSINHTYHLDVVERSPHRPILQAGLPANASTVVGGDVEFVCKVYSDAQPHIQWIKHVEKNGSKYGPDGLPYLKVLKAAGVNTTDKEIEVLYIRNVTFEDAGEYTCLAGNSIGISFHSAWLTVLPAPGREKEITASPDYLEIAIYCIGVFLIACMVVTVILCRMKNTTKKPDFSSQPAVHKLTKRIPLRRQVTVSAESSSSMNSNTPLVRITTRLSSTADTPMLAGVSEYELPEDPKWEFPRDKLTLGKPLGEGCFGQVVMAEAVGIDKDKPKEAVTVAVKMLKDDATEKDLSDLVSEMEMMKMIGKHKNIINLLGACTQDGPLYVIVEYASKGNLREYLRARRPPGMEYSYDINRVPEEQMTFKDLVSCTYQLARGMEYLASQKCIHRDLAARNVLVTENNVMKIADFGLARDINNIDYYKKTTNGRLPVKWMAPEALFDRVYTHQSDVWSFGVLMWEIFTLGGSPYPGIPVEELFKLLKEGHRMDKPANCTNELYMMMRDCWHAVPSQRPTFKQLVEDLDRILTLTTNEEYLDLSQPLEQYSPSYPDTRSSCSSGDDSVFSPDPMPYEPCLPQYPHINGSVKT
Chain of Fibroblast growth factor receptor (Homo sapiens) (P22455 whole entry, looked up): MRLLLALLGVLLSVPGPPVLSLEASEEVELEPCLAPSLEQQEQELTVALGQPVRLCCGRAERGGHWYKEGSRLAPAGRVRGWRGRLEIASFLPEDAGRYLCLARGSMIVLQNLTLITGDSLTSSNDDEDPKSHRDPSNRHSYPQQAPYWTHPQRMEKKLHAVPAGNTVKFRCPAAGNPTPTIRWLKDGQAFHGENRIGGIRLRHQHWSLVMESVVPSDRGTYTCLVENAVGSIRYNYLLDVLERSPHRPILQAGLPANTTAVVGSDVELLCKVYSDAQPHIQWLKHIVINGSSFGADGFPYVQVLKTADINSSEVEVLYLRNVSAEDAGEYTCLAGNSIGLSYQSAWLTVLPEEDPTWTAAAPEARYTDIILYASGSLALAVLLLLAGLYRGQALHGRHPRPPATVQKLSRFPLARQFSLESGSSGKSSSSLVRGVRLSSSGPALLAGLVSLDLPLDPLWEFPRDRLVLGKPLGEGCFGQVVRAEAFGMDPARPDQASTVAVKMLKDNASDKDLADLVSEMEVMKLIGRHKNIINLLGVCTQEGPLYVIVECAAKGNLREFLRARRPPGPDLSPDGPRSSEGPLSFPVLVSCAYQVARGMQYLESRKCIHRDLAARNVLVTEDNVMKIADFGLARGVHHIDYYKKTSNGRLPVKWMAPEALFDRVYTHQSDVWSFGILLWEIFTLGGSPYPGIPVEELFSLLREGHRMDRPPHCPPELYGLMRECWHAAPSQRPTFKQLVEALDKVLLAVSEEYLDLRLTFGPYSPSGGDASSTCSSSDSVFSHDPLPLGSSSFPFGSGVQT
Chain of Fibroblast growth factor receptor (Homo sapiens) (P22607 whole entry, looked up): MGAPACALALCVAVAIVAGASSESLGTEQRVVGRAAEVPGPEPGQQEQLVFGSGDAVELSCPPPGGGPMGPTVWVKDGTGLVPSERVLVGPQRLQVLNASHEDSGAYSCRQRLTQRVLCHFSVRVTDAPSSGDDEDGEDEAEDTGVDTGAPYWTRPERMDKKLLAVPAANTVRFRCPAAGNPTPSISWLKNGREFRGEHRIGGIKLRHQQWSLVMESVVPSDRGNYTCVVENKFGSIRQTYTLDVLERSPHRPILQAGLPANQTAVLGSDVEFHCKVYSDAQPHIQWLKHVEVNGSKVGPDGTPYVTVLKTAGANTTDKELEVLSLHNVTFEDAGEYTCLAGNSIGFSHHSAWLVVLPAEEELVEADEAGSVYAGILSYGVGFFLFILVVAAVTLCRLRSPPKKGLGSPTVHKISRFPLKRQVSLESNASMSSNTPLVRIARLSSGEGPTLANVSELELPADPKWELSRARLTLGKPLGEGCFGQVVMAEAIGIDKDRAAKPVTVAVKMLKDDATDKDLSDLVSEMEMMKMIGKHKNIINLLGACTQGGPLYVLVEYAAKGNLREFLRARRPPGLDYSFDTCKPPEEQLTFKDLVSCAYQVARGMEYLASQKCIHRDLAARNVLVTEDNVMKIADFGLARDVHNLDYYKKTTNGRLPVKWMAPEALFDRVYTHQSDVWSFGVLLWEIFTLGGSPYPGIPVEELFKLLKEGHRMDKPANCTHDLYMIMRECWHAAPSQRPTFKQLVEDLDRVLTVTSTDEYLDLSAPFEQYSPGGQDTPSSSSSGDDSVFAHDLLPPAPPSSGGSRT

[7] = test system: MDA-MB-231; experiment: Cell cycle arrest in human MDA-MB-231 cells assessed as accumulation of cells at G2 phase at 2 uM measured after 24 hrs by PI staining based flowcytometry method (reference value: 23.89%); format: functional
[8] = test system: SH-SY5Y; experiment: Cell cycle arrest in human SH-SY5Y cells assessed as accumulation of cells at G2 phase at 1 uM measured after 24 hrs by PI staining based flowcytometry method (reference value: 13.23%); format: functional
[9] = target: T1, ALK tyrosine kinase receptor (Homo sapiens, UniProt Q9UM73); experiment: Inhibition of human ALK at 1 uM
T1 sequence (Q9UM73 19-1620 limits assumed): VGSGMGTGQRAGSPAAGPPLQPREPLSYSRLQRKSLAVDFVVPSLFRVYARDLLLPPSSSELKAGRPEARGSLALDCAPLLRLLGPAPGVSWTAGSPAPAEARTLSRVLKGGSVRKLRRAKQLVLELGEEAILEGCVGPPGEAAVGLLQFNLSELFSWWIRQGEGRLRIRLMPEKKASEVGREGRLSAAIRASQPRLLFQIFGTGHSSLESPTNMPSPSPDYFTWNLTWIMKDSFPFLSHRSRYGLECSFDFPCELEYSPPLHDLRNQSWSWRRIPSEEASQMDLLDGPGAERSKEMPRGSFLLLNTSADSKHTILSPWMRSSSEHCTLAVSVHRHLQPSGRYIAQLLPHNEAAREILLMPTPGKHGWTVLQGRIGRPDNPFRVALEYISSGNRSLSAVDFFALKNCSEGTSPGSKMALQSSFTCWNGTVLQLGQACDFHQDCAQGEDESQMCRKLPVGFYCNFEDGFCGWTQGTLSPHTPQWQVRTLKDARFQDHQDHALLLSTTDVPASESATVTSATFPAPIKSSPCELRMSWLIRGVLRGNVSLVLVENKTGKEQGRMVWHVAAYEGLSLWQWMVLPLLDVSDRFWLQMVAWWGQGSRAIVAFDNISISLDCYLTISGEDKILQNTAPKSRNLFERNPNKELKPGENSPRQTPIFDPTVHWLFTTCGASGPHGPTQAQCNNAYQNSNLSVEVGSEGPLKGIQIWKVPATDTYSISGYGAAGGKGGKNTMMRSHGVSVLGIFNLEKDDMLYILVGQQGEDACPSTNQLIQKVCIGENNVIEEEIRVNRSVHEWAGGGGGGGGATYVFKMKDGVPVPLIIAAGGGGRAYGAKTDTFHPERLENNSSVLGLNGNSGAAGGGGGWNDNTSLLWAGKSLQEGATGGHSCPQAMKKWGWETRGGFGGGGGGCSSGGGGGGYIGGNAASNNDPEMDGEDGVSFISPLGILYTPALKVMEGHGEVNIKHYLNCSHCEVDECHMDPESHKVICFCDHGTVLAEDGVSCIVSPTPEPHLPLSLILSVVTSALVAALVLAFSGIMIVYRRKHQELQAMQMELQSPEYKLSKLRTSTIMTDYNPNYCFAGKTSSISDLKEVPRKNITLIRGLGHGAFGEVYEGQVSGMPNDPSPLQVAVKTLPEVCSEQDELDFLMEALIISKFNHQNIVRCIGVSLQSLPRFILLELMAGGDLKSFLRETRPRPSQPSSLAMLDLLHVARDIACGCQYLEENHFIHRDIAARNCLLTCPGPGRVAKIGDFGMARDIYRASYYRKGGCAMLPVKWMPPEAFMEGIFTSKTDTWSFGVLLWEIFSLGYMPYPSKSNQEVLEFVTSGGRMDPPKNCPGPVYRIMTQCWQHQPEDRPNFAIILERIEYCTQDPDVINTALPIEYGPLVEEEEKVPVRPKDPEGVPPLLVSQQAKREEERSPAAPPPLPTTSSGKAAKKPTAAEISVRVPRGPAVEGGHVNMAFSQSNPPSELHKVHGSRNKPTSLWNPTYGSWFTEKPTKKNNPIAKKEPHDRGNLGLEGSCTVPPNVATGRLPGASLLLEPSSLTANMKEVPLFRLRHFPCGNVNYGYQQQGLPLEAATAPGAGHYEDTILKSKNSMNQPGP

[10] = test system: HepG2; experiment: Potency index, ratio of crizotinib IC50 to test compound IC50 for human HepG2 cells assessed as inhibition of cell proliferation measured after 72 hrs by CCK8 assay; format: functional
[11] = test system: MDA-MB-231; experiment: Cell cycle arrest in human MDA-MB-231 cells assessed as accumulation of cells at G1 phase at 1 uM measured after 24 hrs by PI staining based flowcytometry method (reference value: 55.32%); format: functional
[12] = test system: SH-SY5Y; experiment: Induction of apoptosis in human SH-SY5Y cells assessed as late apoptotic cells at 2 uM measured after 24 hrs by Annexin V-FITC/PI staining based flowcytometry (reference value: 14.32%); format: functional
[13] = target: T1, ALK tyrosine kinase receptor; experiment: Inhibition of ALK (unknown origin) at 100 nM preincubated for 10 mins followed by addition of substrate and ATP for 25 mins by caliper EZ reader method; conditions: time 35.0 min
[14] = test system: SH-SY5Y; experiment: Induction of apoptosis in human SH-SY5Y cells assessed as viable cells at 4 uM measured after 24 hrs by Annexin V-FITC/PI staining based flowcytometry (reference value: 77.05%); format: functional; conditions: read-out: Activity
[15] = test system: MDA-MB-231; experiment: Induction of apoptosis in human MDA-MB-231 cells assessed as necrotic cells at 4 uM measured after 24 hrs by Annexin V-FITC/PI staining based flowcytometry (reference value: 0.98%); format: functional
[16] = test system: NCI-H2228; experiment: cells; format: functional, cell-based; conditions: Homo sapiens, NCI-H2228, 72 h
[17] = target: T1, ALK tyrosine kinase receptor; experiment: Inhibition of human ALK in human SH-SY5Y cells assessed as inhibition of ERK phosphorylation at Thr202/Tyr204 residue measured after 24 hrs by Western blot assay; format: cell-based; conditions: dose 1-4 µM
[18] = test system: MDA-MB-231; experiment: Induction of apoptosis in human MDA-MB-231 cells assessed as viable cells at 2 uM measured after 24 hrs by Annexin V-FITC/PI staining based flowcytometry (reference value: 93.14%); format: functional; conditions: read-out: Activity
[19] = target: T1, ALK tyrosine kinase receptor; experiment: Inhibition of ALK (unknown origin) at 10 nM preincubated for 10 mins followed by addition of substrate and ATP for 25 mins by caliper EZ reader method; conditions: time 35.0 min
[20] = test system: SH-SY5Y; experiment: Cell cycle arrest in human SH-SY5Y cells assessed as accumulation of cells at S phase at 1 uM measured after 24 hrs by PI staining based flowcytometry method (reference value: 27.69%); format: functional
[21] = target: T1, ALK tyrosine kinase receptor; experiment: Inhibition of ALK in human MDA-MB-231 cells assessed as inhibition of ALK phosphorylation at Tyr1278 residue at 4 uM measured after 24 hrs by Western blot assay; format: cell-based
[22] = target: ALK tyrosine kinase receptor (Homo sapiens, UniProt Q9UM73, L1196M)
Chain of ALK tyrosine kinase receptor (Homo sapiens, UniProt Q9UM73, L1196M) (Q9UM73 19-1620 L1196M limits assumed): as the sequence (Q9UM73 19-1620 limits assumed) above, with L1178M counted along it

[23] = target: T1, ALK tyrosine kinase receptor; experiment: Inhibition of ALK in human MDA-MB-231 cells assessed as inhibition of ERK phosphorylation at Thr202/Tyr204 residue at 4 uM measured after 24 hrs by Western blot assay; format: cell-based
[24] = test system: SH-SY5Y; experiment: Induction of apoptosis in human SH-SY5Y cells assessed as necrotic cells at 2 uM measured after 24 hrs by Annexin V-FITC/PI staining based flowcytometry (reference value: 7.81%); format: functional
[25] = test system: MDA-MB-231; experiment: Induction of apoptosis in human MDA-MB-231 cells assessed as early apoptotic cells at 1 uM measured after 24 hrs by Annexin V-FITC/PI staining based flowcytometry ( Rvb = […]%); format: functional
[26] = test system: A549; experiment: Potency index, ratio of crizotinib IC50 to test compound IC50 for human A549 cells assessed as inhibition of cell proliferation measured after 72 hrs by CCK8 assay; format: functional
[27] = test system: NCI-H2228; experiment: Potency index, ratio of crizotinib IC50 to test compound IC50 for human NCI-H2228 cells harboring EML4/ALK […] assessed as inhibition of cell proliferation measured after 72 hrs by CCK8 assay; format: functional
[28] = test system: A549; experiment: cells; format: functional, cell-based; conditions: Homo sapiens, A549, 72 h
Description: Antiproliferative activity against human A549 cells assessed as inhibition of cell proliferation measured after 72 hrs by CCK8 assay

[29] = test system: MDA-MB-231; experiment: Induction of apoptosis in human MDA-MB-231 cells assessed as viable cells at 1 uM measured after 24 hrs by Annexin V-FITC/PI staining based flowcytometry (reference value: 93.14%); format: functional; conditions: read-out: Activity
[30] = test system: SH-SY5Y; experiment: Cell cycle arrest in human SH-SY5Y cells assessed as accumulation of cells at G1 phase at 4 uM measured after 24 hrs by PI staining based flowcytometry method (reference value: 59.8%); format: functional

- half-life [5]: 25.2 min
- inhibition [6]: 95%
- inhibition [9]: Active
- inhibition [13]: 96.6%
- IC50 [16]: 130 nM
- inhibition [17]: Dose-Dependent Effect
- inhibition [19]: 80.8%
- inhibition [21]: Active
- IC50 [22]: 1.7 nM
- inhibition [23]: Active
- IC50 [28]: 460 nM
SMILES: CC(C)S(=O)(=O)c1ccccc1Nc1nc(Nc2ccc(NC(=O)CCCCCCC(=O)NO)cc2)ncc1Cl
- Activity [1]: 20.49%
- Activity [2]: 4.02%
- viability at 4 µM [3]: 76.9%
- Activity [4]: 3.7%
- Activity [7]: 49.05%
- Activity [8]: 48.7%
- Ratio IC50 [10]: 3
- Activity [11]: 35.05%
- Activity [12]: 28.89%
- viability at 4 µM [14]: 38.3%
- Activity [15]: 3.86%
- viability at 2 µM [18]: 85.1%
- Activity [20]: 18.33%
- Activity [24]: 10.51%
- Activity [25]: 1.96%
- Ratio IC50 [26]: 3
- Ratio IC50 [27]: 3
- viability at 1 µM [29]: 87.9%
- Activity [30]: 4.38%

From ChEMBL document CHEMBL4828709, “Discovery of 2,4-pyrimidinediamine derivatives as potent dual inhibitors of ALK and HDAC” (Eur J Med Chem, 2021)
